Experimental data published in patent US20230250129A1, “NEUROACTIVE STEROIDS AND COMPOSITIONS THEREOF” (Sage Therapeutics, Inc., priority 2020, published 2023).

These compounds were tested against [35S]-TBPS binding, rat brain cortical membranes (GABAA receptor) (assay: Steroid inhibition of [35S]-TBPS binding). Conditions: 3 nM [35S]-TBPS, in the presence of 5 mM GABA, 90 min at room temp.
Procedure: Steroid Inhibition of TBPS Binding
[^35S]-t-Butylbicyclophosphorothionate (TBPS) binding assays using rat brain cortical membranes in the presence of 5 mM GABA has been described (Gee et al, J. Pharmacol. Exp. Ther. 1987, 241, 346-353; Hawkinson et al, Mol. Pharmacol. 1994, 46, 977-985; Lewin, A. H et al., Mol. Pharmacol. 1989, 35, 189-194).
Briefly, cortices are rapidly removed following decapitation of carbon dioxide-anesthetized Sprague-Dawley rats (200-250 g). The cortices are homogenized in 10 volumes of ice-cold 0.32 M sucrose using a glass/teflon homogenizer and centrifuged at 1500×g for 10 min at 4° C. The resultant supernatants are centrifuged at 10,000×g for 20 min at 4° C. to obtain the P2 pellets. The P2 pellets are resuspended in 200 mM NaCl/50 mM Na—K phosphate pH 7.4 buffer and centrifuged at 10,000×g for 10 min at 4° C. This washing procedure is repeated twice and the pellets are resuspended in 10 volumes of buffer. Aliquots ([…]) of the membrane suspensions are incubated with 3 nM [^35S]-TBPS and […] aliquots of test drug dissolved in dimethyl sulfoxide (DMSO) (final 0.5%) in the presence of 5 mM GABA. The incubation is brought to a final volume of 1.0 mL with buffer. Nonspecific binding is determined in the presence of […] and ranged from 15 to 25%. Following a 90 min incubation at room temp, the assays are terminated by filtration through glass fiber filters (Schleicher and Schuell No. 32) using a cell harvester (Brandel) and rinsed three times with ice-cold buffer. Filter bound radioactivity is measured by liquid scintillation spectrometry. Non-linear curve fitting of the overall data for each drug averaged for each concentration is done using Prism (GraphPad). […] The concentration of test compound producing 50% inhibition (IC50) of specific binding and the maximal extent of inhibition (Imax) are determined for the individual experiments with the same model used for the overall data and then the means±SEM.s of the individual experiments are calculated.
Various compounds are or can be screened to determine their potential as modulators of [^35S]-TBPS binding in vitro. These assays are or can be performed in accordance with the above
Work on `CCC[C@@]1(O)CC[C@H]2[C@H](CC[C@@H]3[C@@H]2CC[C@]2(C)[C@@H](C(=O)Nc4ccnc(C#N)n4)CC[C@@H]32)C1` [Compound 87, (3R,5R,8R,9R,10S,13S,14S,17S)—N-(2-cyanopyrimidin-4-yl)-3-hydroxy-13-methyl-3-propylhexadecahydro-1H-cyclopenta[a]phenanthrene-17-carboxamide] yielded an IC50 of under 100 nM. With `CCOC[C@@]1(O)CC[C@H]2[C@H](CC[C@@H]3[C@@H]2CC[C@]2(C)[C@@H](C(=O)Nc4ncc(C#N)cn4)CC[C@@H]32)C1` [Compound 82, (3R,5R,8R,9R,10S,13S,14S,17S)—N-(5-cyanopyrimidin-2-yl)-3-(ethoxymethyl)-3-hydroxy-13-methylhexadecahydro-1H-cyclopenta[a]phenanthrene-17-carboxamide] the IC50 was 100 to 1000 nM. For `CCOC[C@@]1(O)CC[C@H]2[C@H](CC[C@@H]3[C@@H]2CC[C@]2(C)[C@@H](C(=O)Nc4cc(C#N)ncn4)CC[C@@H]32)C1` [Compound 77, (3R,5R,8R,9R,10S,13S,14S,17S)—N-(6-cyanopyrimidin-4-yl)-3-(ethoxymethyl)-3-hydroxy-13-methylhexadecahydro-1H-cyclopenta[a]phenanthrene-17-carboxamide], the IC50 was under 100 nM. In the case of `COC[C@@]1(O)CC[C@@]2(C)[C@H](CC[C@@H]3[C@@H]2CC[C@]2(C)[C@@H](C(=O)Nc4ccc(C#N)cn4)CC[C@@H]32)C1` [Compound 70, (3R,5R,8R,9S,10S,13S,14S,17S)—N-(5-cyanopyridin-2-yl)-3-hydroxy-3-(methoxymethyl)-10,13-dimethylhexadecahydro-1H-cyclopenta[a]phenanthrene-17-carboxamide], the IC50 is reported as under 100 nM. `C[C@@]1(O)CC[C@H]2[C@H](CC[C@@H]3[C@@H]2CC[C@]2(C)[C@@H](C(=O)Nc4ccccc4)CCC[C@@H]32)C1` [Compound 98, (1S,4aS,4bR,6aR,8R,10aS,10bR,12aS)-8-hydroxy-8,12a-dimethyl-N-phenyloctadecahydrochrysene-1-carboxamide] gave an IC50 of under 100 nM. `C[C@H]1C[C@H]2[C@H](CC[C@@H]3[C@@H]2CC[C@]2(C)[C@@H](C(=O)Nc4cnc(C#N)cn4)CC[C@@H]32)C[C@]1(C)O` [Compound 88, (2S,3S,5R,8R,9R,10S,13S,14S,17S)—N-(5-cyanopyrazin-2-yl)-3-hydroxy-2,3,13-trimethylhexadecahydro-1H-cyclopenta[a]phenanthrene-17-carboxamide] gave an IC50 of under 100 nM. `COC[C@@]1(O)CC[C@H]2[C@H](CC[C@@H]3[C@@H]2CC[C@]2(C)[C@@H](C(=O)Nc4ccnc(C#N)n4)CC[C@@H]32)C1` [Compound 91, (3R,5R,8R,9R,10S,13S,14S,17S)—N-(2-cyanopyrimidin-4-yl)-3-hydroxy-3-(methoxymethyl)-13-methylhexadecahydro-1H-cyclopenta[a]phenanthrene-17-carboxamide] gave an IC50 of under 100 nM. With `COC[C@@]1(O)CC[C@H]2[C@H](CC[C@@H]3[C@@H]2CC[C@]2(C)[C@@H](C(=O)Nc4ccc(C#N)cn4)CC[C@@H]32)C1` [Compound 71, (3R,5R,8R,9R,10S,13S,14S,17S)—N-(5-cyanopyridin-2-yl)-3-hydroxy-3-(methoxymethyl)-13-methylhexadecahydro-1H-cyclopenta[a]phenanthrene-17-carboxamide] the IC50 was under 100 nM. Work on `COC[C@@]1(O)CC[C@H]2[C@H](CC[C@@H]3[C@@H]2CC[C@]2(C)[C@@H](C(=O)Nc4cc(C#N)ncn4)CC[C@@H]32)C1` [Compound 94, (3R,5R,8R,9R,10S,13S,14S,17S)—N-(6-cyanopyrimidin-4-yl)-3-hydroxy-3-(methoxymethyl)-13-methylhexadecahydro-1H-cyclopenta[a]phenanthrene-17-carboxamide] yielded an IC50 of under 100 nM. For `CCC[C@@]1(O)CC[C@@]2(C)[C@H](CC[C@@H]3[C@@H]2CC[C@]2(C)[C@@H](C(=O)Nc4cnc(C#N)cn4)CC[C@@H]32)C1` [Compound 74, (3R,5R,8R,9S,10S,13S,14S,17S)—N-(5-cyanopyrazin-2-yl)-3-hydroxy-10,13-dimethyl-3-propylhexadecahydro-1H-cyclopenta[a]phenanthrene-17-carboxamide], the IC50 was under 100 nM. In the case of `CCC[C@@]1(O)CC[C@H]2[C@H](CC[C@@H]3[C@@H]2CC[C@]2(C)[C@@H](C(=O)Nc4ncc(C#N)cn4)CC[C@@H]32)C1` [Compound 90, (3R,5R,8R,9R,10S,13S,14S,17S)—N-(5-cyanopyrimidin-2-yl)-3-hydroxy-13-methyl-3-propylhexadecahydro-1H-cyclopenta[a]phenanthrene-17-carboxamide], the IC50 is reported as under 100 nM. `COC[C@@]1(O)CC[C@H]2[C@H](CC[C@@H]3[C@@H]2CC[C@]2(C)[C@@H](C(=O)Nc4nccc(C#N)n4)CC[C@@H]32)C1` [Compound 92, (3R,5R,8R,9R,10S,13S,14S,17S)—N-(4-cyanopyrimidin-2-yl)-3-hydroxy-3-(methoxymethyl)-13-methylhexadecahydro-1H-cyclopenta[a]phenanthrene-17-carboxamide] was tested, and the IC50 was 100 to 1000 nM. Compound `COC[C@@]1(O)CC[C@H]2[C@H](CC[C@@H]3[C@@H]2CC[C@]2(C)[C@@H](C(=O)Nc4cncc(C#N)n4)CC[C@@H]32)C1` [Compound 95, (3R,5R,8R,9R,10S,13S,14S,17S)—N-(6-cyanopyrazin-2-yl)-3-hydroxy-3-(methoxymethyl)-13-methylhexadecahydro-1H-cyclopenta[a]phenanthrene-17-carboxamide] has an IC50 of under 100 nM. With `CCC[C@@]1(O)CC[C@H]2[C@H](CC[C@@H]3[C@@H]2CC[C@]2(C)[C@@H](C(=O)Nc4cnc(C#N)cn4)CC[C@@H]32)C1` [Compound 69, (3R,5R,8R,9R,10S,13S,14S,17S)—N-(5-cyanopyrazin-2-yl)-3-hydroxy-13-methyl-3-propylhexadecahydro-1H-cyclopenta[a]phenanthrene-17-carboxamide] the IC50 was under 100 nM. In the case of `CCOC[C@@]1(O)CC[C@@]2(CC)[C@H](CC[C@H]3[C@@H]4CCC[C@H](C(=O)Nc5cc(C)nn5C)[C@@]4(C)CC[C@@H]32)C1` [Compound 101, (1S,4aS,4bS,6aR,8R,10aS,10bS,12aS)—N-(1,3-dimethyl-1H-pyrazol-5-yl)-8-(ethoxymethyl)-10a-ethyl-8-hydroxy-12a-methyloctadecahydrochrysene-1-carboxamide], the IC50 is reported as under 100 nM. `CCOC[C@@]1(O)CC[C@H]2[C@H](CC[C@@H]3[C@@H]2CC[C@]2(C)[C@@H](C(=O)Nc4cnc(C#N)nc4)CC[C@@H]32)C1` [Compound 76, (3R,5R,8R,9R,10S,13S,14S,17S)—N-(2-cyanopyrimidin-5-yl)-3-(ethoxymethyl)-3-hydroxy-13-methylhexadecahydro-1H-cyclopenta[a]phenanthrene-17-carboxamide] gave an IC50 of under 100 nM. Work on `CCC[C@@]1(O)CC[C@H]2[C@H](CC[C@@H]3[C@@H]2CC[C@]2(C)[C@@H](C(=O)Nc4cc(C#N)ncn4)CC[C@@H]32)C1` [Compound 84, (3R,5R,8R,9R,10S,13S,14S,17S)—N-(6-cyanopyrimidin-4-yl)-3-hydroxy-13-methyl-3-propylhexadecahydro-1H-cyclopenta[a]phenanthrene-17-carboxamide] yielded an IC50 of under 100 nM. `CCC[C@@]1(O)CC[C@H]2[C@H](CC[C@@H]3[C@@H]2CC[C@]2(C)[C@@H](C(=O)Nc4nccc(C#N)n4)CC[C@@H]32)C1` [Compound 93, (3R,5R,8R,9R,10S,13S,14S,17S)—N-(4-cyanopyrimidin-2-yl)-3-hydroxy-13-methyl-3-propylhexadecahydro-1H-cyclopenta[a]phenanthrene-17-carboxamide] was tested, and the IC50 was under 100 nM. `CCC[C@@]1(O)CC[C@H]2[C@H](CC[C@@H]3[C@@H]2CC[C@]2(C)[C@@H](C(=O)Nc4cncc(C#N)n4)CC[C@@H]32)C1` [Compound 83, (3R,5R,8R,9R,10S,13S,14S,17S)—N-(6-cyanopyrazin-2-yl)-3-hydroxy-13-methyl-3-propylhexadecahydro-1H-cyclopenta[a]phenanthrene-17-carboxamide] gave an IC50 of under 100 nM. With `COC[C@@]1(O)CC[C@@]2(C)[C@H](CC[C@@H]3[C@@H]2CC[C@]2(C)[C@@H](C(=O)Nc4cnc(C#N)cn4)CC[C@@H]32)C1` [Compound 72, (3R,5R,8R,9S,10S,13S,14S,17S)—N-(5-cyanopyrazin-2-yl)-3-hydroxy-3-(methoxymethyl)-10,13-dimethylhexadecahydro-1H-cyclopenta[a]phenanthrene-17-carboxamide] the IC50 was under 100 nM.
